Measurements taken from US9314507B2, “Methods of treatment of heart failure with natriuretic peptides” (Capricor Therapeutics, INC., priority 2010, dated 2016).
Where a SMILES comes first, the peptide text is derived from it. Bridges are numbered along the chain shown (N, C = ends).

Assays:
Format in all cases: in vivo, human
[1] = system: patients with chronic heart failure; assay: Dosing study (fixed and weight-based dose)
Description: In a dosing study, CD-NP was administered to patients with chronic heart failure. The amount of CD-NP administered was either a set amount (in μg/hr) regardless of the patient's weight, or was varied based on the patient's weight.
In FIG. 10a, the steady state average (SS Avg) serum concentration of CD-NP in pg/mL is plotted against patient weight for patients who received low (18 μg/hr) and medium (24 μg/hr) doses of CD-NP.
The placebo group had no significant change in SBP over the course of the study. […] In one aspect, the SBP decrease for doses 24 μg/hr is insufficient to cause a risk of hypotension. […] The weight-based group received a dose that depended on the patients weight. Using PK data, for example the linear fit of data from FIG. 10a, the dose was adjusted to give a predicted serum concentration of 500 pg/mL.
As depicted in FIG. 12, the concentration of CD-NP in serum vs. time after initial dosing for patients on a low dose and a medium dose.

clinical = conditions: human, in vivo; read-out: terminal elimination half-life
healthy subjects = assay: clinical
[2] = system: patients hospitalized with acute heart failure requiring hemodynamic monitoring; assay: Hemodynamic Monitoring Phase 2a clinical study (Hemo Study, NIL-CDNP-CT003)
Description: Another exemplary study using CD-NP was a multi-center, open-label Phase 2a clinical study of CD-NP in patients hospitalized with acute heart failure requiring hemodynamic monitoring (Hemo Study, or NIL-CDNP-CT003). This study considered the efficacy of 8 hours of intravenous administration of CD-NP on changes in cardiac output and pulmonary capillary wedge pressure (PCWP, or wedge pressure).
Stabilized acute heart failure patients requiring hemodynamic monitoring, and receiving standard-of-care heart failure medications (i.e., furosemide infusion), received an initial 8-hour CD-NP infusion followed by a 14-hour washout period, and then a further 8-hour CD-NP infusion. Hemodynamic measurements were collected for an additional 8 hours and safety measurements were collected for a further 2 days.
Patients were enrolled into one of two sequential cohorts (Cohort A and B) which could include up to 10 evaluable patients in each cohort. Cohort A received 8 hours of 3 ng/kg/min CD-NP, followed by a 14 hour wash-out period, and then 8 hours of 10 ng/kg/min CD-NP. Cohort B received 8 hours of 1 ng/kg/min CD-NP, followed by a 14 hour wash-out period, and then 8 hours of 20 ng/kg/min CD-NP.
The first 2 hours, (−2 to 0) represent time before administration of CD-NP. Hours 0 to 38 represent time during the CD-NP dosing regimen discussed above.

With `CC[C@H](C)[C@@H]1NC(=O)[C@H](CCCNC(=N)N)NC(=O)[C@H](CC(=O)O)NC(=O)[C@H](CCCCN)NC(=O)[C@H](CC(C)C)NC(=O)CNC(=O)[C@H](Cc2ccccc2)NC(=O)[C@@H](NC(=O)CNC(=O)[C@H](CCCCN)NC(=O)[C@H](CO)NC(=O)[C@H](CC(C)C)NC(=O)CN)CSSC[C@@H](C(=O)N2CCC[C@H]2C(=O)N[C@@H](CO)C(=O)N[C@@H](CC(C)C)C(=O)N[C@@H](CCCNC(=N)N)C(=O)N[C@@H](CC(=O)O)C(=O)N2CCC[C@H]2C(=O)N[C@@H](CCCNC(=N)N)C(=O)N2CCC[C@H]2C(=O)N[C@@H](CC(N)=O)C(=O)N[C@@H](C)C(=O)N2CCC[C@H]2C(=O)N[C@@H](CO)C(=O)N[C@H](C(=O)N[C@@H](CO)C(=O)N[C@@H](C)C(=O)O)[C@@H](C)O)NC(=O)CNC(=O)[C@H](CC(C)C)NC(=O)CNC(=O)[C@H](CO)NC(=O)[C@H](CCSC)NC(=O)[C@H](CO)NC(=O)CNC1=O` [CD-NP, cenderitide] (H-GLSKGCFGLKDRIGSMSGLGCPSLRDPRPNAPSTSA-OH; disulfide 6-21; N-terminus and C-terminus assumed) the “area under the curve (AUC) vs patient weight” value ([1]; FIG. 10b) was “decreases with increasing patient weight”, the “change in SBP” value ([1]; high dose 36 μg/hr (600 ng/min)) was “decrease in SBP that could possibly cause hypotension” and the “steady state average (SS Avg) serum concentration vs patient weight” value ([1]; low (18 μg/hr) and medium (24 μg/hr) doses, FIG. 10a) was “decreases with increasing patient weight”. The half-life (clinical) was 15 to 20 min, the “orthostatic hypotension immediately after the infusion” value (healthy subjects; 17.5 ng/kg/min, vs placebo arm) was “more events were observed in the CD-NP arm” and the “subjects with symptomatic hypotension in association with orthostatic challenge immediately post-infusion” value (healthy subjects; 25 ng/kg/min) was “two out of four”. The “symptomatic hypotension during CD-NP dosing” value (healthy subjects; during dosing) was “did not induce symptomatic hypotension”, the “maximum tolerated dose (MTD)” value (healthy subjects; healthy subjects, 10, 17.5 and 25 ng/kg/min tested) was 17.5 ng/kg/min and the “time to steady state of natriuretic peptide” value (healthy subjects; infusion) was 1 to 2 h. The “SBP below 90 mmHg” value ([2]; 20 ng/kg/min, 8 h infusion, FIG. 4b) was “one patient had a transient dip in SBP below 90 mmHg” and the well tolerated dose ([2]; previous studies, co-administered with furosemide to stabilized heart failure patients) was “up to 20 ng/kg/min”.
